This note sets out measurements from PubChem BioAssay AID179 (DTP/NCI, 2004).

Structures are written as SMILES. Active and inactive are the calls of the source.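 The calls were made as follows: active = compounds giving half or more protection of infected cells from virus-caused growth loss, again on retest; inactive = the rest.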 Where a SMILES comes first, the peptide text is derived from it. Bridges are numbered along the chain shown (N, C = ends). The star is where a group is joined. Cbz = O=C(OCc1ccccc1)*; OBn = c1ccc(CO*)cc1

For the experiment, the system named is CEM cells HIV-1 protection, formazan growth assay. Nature of the experiment: NCI AIDS Antiviral Assay. To be noted: for IC50: measured here: growth of uninfected CEM cells. In outline:
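Steps: treat uninfected and HIV-1-infected human CEM cells at five drug levels; quantify growth by soluble formazan; retest any compound reaching 50% protection; classify actives from the retest.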

By EC50 is commonly meant the concentration needed to bring the measured effect to its halfway point. The term IC50 denotes the concentration needed to halve the response being measured. A lower IC50 goes with greater potency. For the molecule `Cc1ccc(S(=O)(=O)/C(C#N)=C\N2CC(=O)NC2=S)cc1`, the EC50 is more than 200 µM and the concentration for half-maximal inhibition (IC50) is more than 200 µM.

Regarding `CC(=O)Oc1cc2c(cc1OCC(F)(F)F)[C@H]1CC[C@]3(C)[C@@H](OC(C)=O)CC[C@H]3[C@@H]1CC2=O`, the EC50 was more than 200 µM and the IC50 was found to be 22.4 µM.

Regarding `O=S(=O)(O)O`, the EC50 is more than 263 µM and the IC50 stood at 40.7 µM.

For `NCCCNCc1c2ccccc2c(CNCCCN)c2ccccc12`, the EC50 was more than 120 µM and the IC50 was 1.95 µM.

Regarding `O=S(Cc1ccc2c(c1)OCO2)c1ccccc1` (stereo not drawn), the EC50 is more than 955 µM and the concentration for half-maximal inhibition (IC50) came out at 661 µM.

Consider `COc1ccccc1NC(=O)/C(=C/c1ccccc1)C(C)=O`, for which the EC50 was more than 24.5 µM and the IC50 is 18.6 µM.

`O=c1[nH]c(=O)n(C2CC(O)C(CO)O2)cc1NN=NCCc1ccccc1` (stereo not drawn): the EC50 is more than 200 µM and the IC50 is more than 200 µM.

Turning to `CN(C)C(=S)N/N=C\C=N/NC(=S)N(C)C`, the EC50 is more than 0.2 µM and the IC50 came to 0.117 µM.

In the case of `O=C(CCc1nnc2s/c(=C\c3ccc4c(c3)OCO4)c(=O)n12)Nc1cc(Cl)ccc1Cl`, the EC50 is 72.4 µM and the IC50 was 513 µM.

Consider `COc1cc2c(cc1O)-c1[nH]ncc1CCC2`, for which the EC50 is more than 43.7 µM and the IC50 is more than 43.7 µM.

`COC(=O)CCC(=O)N1Cc2cc(C)ccc2N(C(=O)CCC(=O)OC)Cc2cc(C)ccc21`: the outcome was inactive.

Turning to `Nc1nnc2nc(CC(=O)/C=C/c3ccccc3)c(=O)[nH]n12`, the EC50 was more than 170 µM and the IC50 was more than 170 µM.

`Cc1c(Cc2ccccc2)n(C(C)OCCN(OC(=O)Oc2ccccc2)C(=O)Oc2ccccc2)c(=O)[nH]c1=O` (stereo not drawn): the EC50 is more than 200 µM and the IC50 was 53.7 µM.

For `C[n+]1c(-c2ccc(/C=N/Nc3ccnc(N/N=C/c4ccc(-c5cn6ccccc6[n+]5C)cc4)n3)cc2)cn2ccccc21`, the EC50 is 4.68 µM and the concentration for half-maximal inhibition (IC50) stood at 9.77 µM.

`CC(C)CC(NC(=O)C(CC(=O)O)NC(=O)C(CO)NC(=O)C(CCCCN)NC(=O)C1CCCN1C(=O)C(CC(C)C)NC(=O)C(CO)NC(=O)CNC(=O)C(N)CCC(=O)O)C(=O)NC(CCCN=C(N)N)C(=O)O` (stereo not drawn) (H-EGSLPKSDLR-OH; configuration not given here): the EC50 is more than 56.2 µM and the IC50 is more than 56.2 µM.

In the case of `O=C1NC(=O)c2ncccc21`, the EC50 is more than 200 µM and the IC50 was more than 200 µM.

For `O=C1CC(c2ccc(Cl)cc2)NC(=O)N1CCN1CCCC1` (stereo not drawn), the EC50 is more than 200 µM and the 50% inhibitory concentration (IC50) is more than 200 µM.

Consider `Cc1ncc2c(n1)NC(c1ccc([N+](=O)[O-])cc1)NC2` (stereo not drawn), for which the EC50 is more than 69.2 µM and the concentration for half-maximal inhibition (IC50) was more than 69.2 µM.

Regarding `CO/C1=C\C(C)=C\C(C)C(O)C(C)C/C(C)=C/C=C/C(OC)C(C(C)C(O)C(C)C2(O)CC(O)C(C)C(C(C)C)O2)OC1=O` (stereo not drawn), the EC50 is more than 0.2 µM and the half-maximal inhibitory concentration (IC50) was found to be 0.0129 µM.

For the molecule `CC(C)NC(=O)OCCN=c1c2ccccc2ccc2ccccc12`, the EC50 is more than 200 µM and the IC50 turned out to be 93.3 µM.

For the molecule `C[C@@]12c3c4ccc(C=O)c3Oc3ccc(C=O)c(c31)Oc1c(C=O)ccc(c12)O4`, the EC50 is more than 50.1 µM and the 50% inhibitory concentration (IC50) is more than 50.1 µM.

Regarding `COc1cc(C2NCCC(c3ccccc3)(c3ccccc3)N2)cc(OC)c1OC` (stereo not drawn), the EC50 is more than 200 µM and the half-maximal inhibitory concentration (IC50) turned out to be 19.5 µM.

On to `COc1cc2c3c(c1)C(O)CC[N+]3(C)CCC2` (stereo not drawn), for which the EC50 was more than 200 µM and the IC50 is more than 200 µM.

Turning to `COC(=O)C(Cc1ccccc1)NC(=O)CCCNC(=O)OCc1ccccc1` (stereo not drawn), the EC50 was more than 200 µM and the IC50 worked out at 87.1 µM.

In the case of `Oc1c(N2CCCCC2)cc(-c2cc(N3CCCCC3)c(O)c3ccccc23)c2ccccc12`, the EC50 is more than 200 µM and the concentration for half-maximal inhibition (IC50) turned out to be 30.2 µM.

Turning to `CC(=O)c1cc(C(C)=O)c(CC(=O)C(=O)Nc2cccc(C)c2C)nc1CC(=O)C(=O)Nc1cccc(C)c1C`, the EC50 is more than 200 µM and the 50% inhibitory concentration (IC50) was more than 200 µM.

On to `NC1NCCC(=O)N1CCc1c[nH]c2ccccc12` (stereo not drawn), for which the EC50 is more than 200 µM and the half-maximal inhibitory concentration (IC50) came out at 36.3 µM.

As for `Brc1ccc(/C(N=N/C(=N\Sc2ccccc2)c2ccc(Br)cc2)=N/Sc2ccccc2)cc1`, the EC50 is more than 50.1 µM and the half-maximal inhibitory concentration (IC50) is more than 50.1 µM.

Regarding `CC1C=CN(N(C)C)C2=C1C(=O)c1cnccc1C2=O` (stereo not drawn), the EC50 was more than 20 µM and the half-maximal inhibitory concentration (IC50) was 1.23 µM.

`CC(=C(c1ccccc1)c1ccccc1)N1C(=O)CC(=O)N1C`: the EC50 is more than 200 µM and the half-maximal inhibitory concentration (IC50) was 120 µM.

On to `COC(=O)C(C(=O)C(=O)Nc1ccc(N)cc1[N+](=O)[O-])c1nc2ccc(Cl)cc2[nH]c1=O` (stereo not drawn), for which the EC50 was more than 40.7 µM and the IC50 was 30.9 µM.

`Cc1[nH]n(-c2ccccc2)c(=O)c1/C=N\C(N)=S`: the EC50 was more than 200 µM and the IC50 was found to be 182 µM.

In the case of `CC1NS(=O)(=O)N(C)C1=O` (stereo not drawn), the result was inactive.

Take `Nc1ccccc1C(=O)/C=C/c1c(O)ccc2ccccc12`: the outcome was inactive.

In the case of `O=C(/C(=C/c1ccccc1Cl)c1ccccc1)c1ccccc1`, the EC50 was more than 8.51 µM and the 50% inhibitory concentration (IC50) is more than 8.51 µM.

On to `CN(Cc1cnc2nc(N)nc(N)c2n1)c1ccc(C(=O)NC(CCC(=O)NCCC(P(=O)(O)O)P(=O)(O)O)C(=O)O)cc1` (stereo not drawn), for which the EC50 was more than 200 µM and the IC50 was found to be 3.63 µM.

For `C[C@@H](c1ccccc1)N(CC#N)[C@H]1CCC[C@]1(O)/C=C/c1ccc2c(c1)OCO2`, the EC50 was more than 50.1 µM and the half-inhibitory concentration (IC50) was more than 50.1 µM.

On to `COc1ccc2c3c(c(C(=O)O)oc13)C(CCC(=O)O)CC2` (stereo not drawn), for which the outcome was inactive.

`CC(C)NC1CCCCC2c3cc(F)ccc3[C@]12O` (stereo partly drawn): the EC50 was 60.3 µM and the IC50 was more than 200 µM.

`CCCNC(=O)Sc1ccccc1C(=O)N[C@@H](C)C(N)=O` displayed a 50% effective concentration (EC50) of more than 4.17 µM and a half-maximal inhibitory concentration (IC50) of 1.41 µM.

In the case of `Cc1nnc2c([N+](=O)[O-])c(N)c(Cl)nn12`, the EC50 is more than 200 µM and the IC50 amounted to 1.29 µM.

Consider `COc1ccc2c(c1)-c1nc(=O)n(CCCN(C)C)c3ccc([N+](=O)[O-])c(c13)N2`, for which the EC50 was more than 1 µM and the IC50 amounted to 0.355 µM.

With `NN1C(=O)C(CCO)S/C1=N/N=C1/SC(CCO)C(=O)N1N` (stereo not drawn), the EC50 was more than 74.1 µM and the concentration for half-maximal inhibition (IC50) is more than 74.1 µM.

On to `CCC[CH2][Sn]1([CH2]CCC)[O]C(=O)c2cccnc2[S]1`, for which the EC50 is more than 33.9 µM and the IC50 was 0.631 µM.

Turning to `COc1cc(OC)c(C(=O)/C=C/c2ccc(OC)c(OC)c2)c(OC)c1`, the outcome was inactive.

Take `O=C(O)CCCCCCCc1cccc(OCCOCCO)c1`: the EC50 was more than 100 µM and the IC50 is more than 100 µM.

Turning to `Cn1cc(NC(=O)Nc2cc(C(=O)Nc3cc(C(=O)Nc4ccc5cc(S(=O)(=O)O)cc(S(=O)(=O)O)c5c4)n(C)c3)n(C)c2)cc1C(=O)Nc1cc(C(=O)Nc2ccc3cc(S(=O)(=O)O)cc(S(=O)(=O)O)c3c2)n(C)c1`, the EC50 is 33.9 µM and the IC50 is more than 100 µM.

`N#CCc1c(C2(c3ccncc3)OCCO2)[nH]c2ccccc12`: the EC50 is more than 117 µM and the IC50 came out at 110 µM.

Take `O=C(N/N=C/C=C/c1ccccc1)c1ccccc1Nc1ccccc1C(=O)N/N=C/C=C/c1ccccc1`: the EC50 was more than 34.7 µM and the IC50 turned out to be 4.9 µM.

As to `O=C(O)c1ccc2[nH]c(=O)oc2c1`, the EC50 is more than 200 µM and the concentration for half-maximal inhibition (IC50) was more than 200 µM.

Consider `CCC(C)(C(=O)O)C(=O)O`, for which the EC50 is more than 200 µM and the IC50 was more than 200 µM.

With `Nc1nc(C=O)nc2c1ncn2C1OC(CO)C(O)C1O` (stereo not drawn), the EC50 was more than 200 µM and the IC50 is 30.9 µM.

With `Cc1cnc2c(c1)C(=O)C1=C(OC(C)(C)CC1O)C2=O` (stereo not drawn), the EC50 is more than 26.3 µM and the IC50 was determined as 3.39 µM.

With `O=P(O)(O)CN1CCN(CP(=O)(O)O)CCN(CP(=O)(O)O)CCN(CP(=O)(O)O)CC1`, the EC50 is more than 100 µM and the half-inhibitory concentration (IC50) turned out to be 20.4 µM.

In the case of `O=c1/c(=C\c2ccc(Cl)c(Cl)c2)sc2n1CCN=2`, the EC50 was more than 200 µM and the half-maximal inhibitory concentration (IC50) was more than 200 µM.

As to `N[C@@H](CCC(=O)NCP(=O)(O)O)C(=O)O`, the EC50 was more than 200 µM and the IC50 is more than 200 µM.

For `COC(=O)C1CCC(=O)NCCCCC(NC(=O)C(CC(=O)OCc2ccccc2)NC(=O)OCc2ccccc2)C(=O)N1` (stereo not drawn) (Cbz-Asp(OBn)-Lys-Glu-OMe; lactam 2-3; configuration not given here), the EC50 is more than 200 µM and the half-inhibitory concentration (IC50) was more than 200 µM.

With `COc1ccc(S(=O)(=O)Cc2ccc(C(=O)O)cc2[N+](=O)[O-])cc1`, the EC50 was more than 708 µM and the 50% inhibitory concentration (IC50) came to 646 µM.

For the molecule `COc1ccc(OC)c(N=Nc2c(O)c3ccccc3[nH]c2=O)c1`, the half-maximal effective concentration (EC50) was 47.9 µM and the half-maximal inhibitory concentration (IC50) was more than 200 µM.

Regarding `Cc1c(C)c2cc3c(=O)ccoc3c(C)c2oc1=O`, the EC50 was more than 20.4 µM and the IC50 is more than 20.4 µM.

With `COc1cccc(C=O)c1[O-].COc1cccc(C=O)c1[O-].[Zn+2]`, the EC50 is more than 676 µM and the IC50 was 21.9 µM.

As for `Oc1c(C2=NNC(c3cccs3)C2)ccc2ccccc12` (stereo not drawn), the EC50 was more than 200 µM and the half-inhibitory concentration (IC50) came out at 33.1 µM.

Turning to `CCCCNC(=O)Nc1c(C(N)=O)c2n(c1C(=O)OCC)CCCCC2`, the EC50 was more than 50.1 µM and the IC50 is more than 50.1 µM.

`OC1(c2ccc(Cl)cc2)c2ccccc2C2=Nc3ccccc3CN21` (stereo not drawn): the EC50 is more than 200 µM and the IC50 was found to be 115 µM.

With `CCOC(=O)c1ccccc1NN1C(=O)C=CC1=O`, the EC50 was more than 347 µM and the 50% inhibitory concentration (IC50) was found to be 52.5 µM.

Take `NC(CO)C(=O)NCCS(=O)(=O)O` (stereo not drawn): the EC50 is more than 100 µM and the half-inhibitory concentration (IC50) is more than 100 µM.

As for `C1C2OC2C2C1C1CC2C2OC12` (stereo not drawn), the EC50 is more than 1510 µM and the IC50 was more than 1510 µM.

On to `CCNC(=O)Cc1nc2c(N)ncnc2n1C1OC(CO)C(O)C1O` (stereo not drawn), for which the EC50 was more than 200 µM and the half-inhibitory concentration (IC50) was 81.3 µM.

With `C=C1c2nc3ccccc3n2C=C(c2ccc(Cl)cc2)N1c1ccc(OC)cc1`, the EC50 is more than 200 µM and the half-inhibitory concentration (IC50) was determined as 18.6 µM.
